Data published in PubChem BioAssay AID1745844 (Carcinogenic Potency Database (CPDB), 2022).
Activity calls are given as the source filed them. How the calls were made is not given here.

Test system: rodent lifetime carcinogenesis bioassay, tumor incidence TD50
Assay: chronic cancer bioassays in animals – CPDB, compiled studies (AID 1745844)

For `C1CCNCC1`, the TD50 (rat, strain MRC, females, in drinking water, site: any site (literature study), lesion: several types, types named in the paper, dosed 75 weeks, study length 104 weeks) was 63.3 mg/kg/day.

In the case of `NC(=O)Cc1c([O-])on[n+]1Cc1ccccc1`, the TD50 (mouse, strain DDD, females, in drinking water, site: liver, lesion: hepatocellular adenoma, dosed 52 weeks, study length 52 weeks) is reported as 10.2 mg/kg/day, the TD50 (mouse, strain DDD, females, in drinking water, site: liver, lesion: hepatocellular carcinoma, dosed 52 weeks, study length 52 weeks) is reported as 22.6 mg/kg/day and the TD50 (mouse, strain DDD, females, in drinking water, site: liver, lesion: several types, types named in the paper, dosed 52 weeks, study length 52 weeks) is reported as 10.2 mg/kg/day. For the same molecule, the TD50 (mouse, strain DDD, females, in drinking water, site: lung, lesion: adenoma, dosed 52 weeks, study length 52 weeks) was 31.4 mg/kg/day, the TD50 (rat, strain Donryu, males, in drinking water, site: liver, lesion: hepatocellular carcinoma, dosed 41 weeks, study length 91 weeks) was 4.24 mg/kg/day and the TD50 (rat, strain Donryu, males, in drinking water, site: liver, lesion: neoplastic nodule, dosed 41 weeks, study length 91 weeks) was 15.1 mg/kg/day. For the same molecule, the TD50 (rat, strain Donryu, males, in drinking water, site: liver, lesion: several types, types named in the paper, dosed 41 weeks, study length 91 weeks) was 4.24 mg/kg/day and the carcinogen call (rat, strain Donryu, males, in feed, site: liver, lesion: one or several types, types not named, dosed 104 weeks, study length 104 weeks) was “negative (inactive)”.

With `c1ccc2[nH]c(-c3cscn3)nc2c1` the TD50 (mouse, strain B6C3F1, males, in feed, site: liver, lesion: hepatocellular adenoma, dosed 52 weeks, study length 52 weeks) was 390 mg/kg/day (inactive), the carcinogen call (mouse, strain Crj: CD-1 (ICR), females, in feed, site: liver, lesion: one or several types, types not named, dosed 78 weeks, study length 78 weeks) was “negative (inactive)” and the TD50 (mouse, strain Crj: CD-1 (ICR), females, in feed, site: lung, lesion: alveolar/bronchiolar adenoma, dosed 78 weeks, study length 78 weeks) was 4880 mg/kg/day (inactive). The carcinogen call (mouse, strain Crj: CD-1 (ICR), females, in feed, site: lung, lesion: alveolar/bronchiolar carcinoma, dosed 78 weeks, study length 78 weeks) was “negative (inactive)”, the TD50 (mouse, strain Crj: CD-1 (ICR), females, in feed, site: urinary bladder, lesion: mesenchymal neoplasm, dosed 78 weeks, study length 78 weeks) was 16300 mg/kg/day (inactive) and the carcinogen call (mouse, strain Crj: CD-1 (ICR), males, in feed, site: liver, lesion: hepatocellular adenoma, dosed 78 weeks, study length 78 weeks) was “negative (inactive)”. The carcinogen call (mouse, strain Crj: CD-1 (ICR), males, in feed, site: liver, lesion: hepatocellular carcinoma, dosed 78 weeks, study length 78 weeks) was “negative (inactive)”, the carcinogen call (mouse, strain Crj: CD-1 (ICR), males, in feed, site: lung, lesion: alveolar/bronchiolar adenoma, dosed 78 weeks, study length 78 weeks) was “negative (inactive)” and the carcinogen call (mouse, strain Crj: CD-1 (ICR), males, in feed, site: lung, lesion: alveolar/bronchiolar carcinoma, dosed 78 weeks, study length 78 weeks) was “negative (inactive)”. The TD50 (mouse, strain Crj: CD-1 (ICR), males, in feed, site: urinary bladder, lesion: transitional-cell papilloma, dosed 78 weeks, study length 78 weeks) was 15000 mg/kg/day (inactive), the carcinogen call (rat, strain F344/DuCrj, females, in feed, site: kidney, lesion: transitional-cell carcinoma, dosed 104 weeks, study length 104 weeks) was “negative (inactive)” and the carcinogen call (rat, strain F344/DuCrj, females, in feed, site: liver, lesion: one or several types, types not named, dosed 104 weeks, study length 104 weeks) was “negative (inactive)”. For the same molecule, the TD50 (rat, strain F344/DuCrj, females, in feed, site: urinary bladder, lesion: transitional-cell papilloma, dosed 104 weeks, study length 104 weeks) was 7640 mg/kg/day (inactive), the TD50 (rat, strain F344/DuCrj, males, in feed, site: kidney, lesion: transitional-cell carcinoma, dosed 104 weeks, study length 104 weeks) was 3050 mg/kg/day (inactive) and the carcinogen call (rat, strain F344/DuCrj, males, in feed, site: liver, lesion: one or several types, types not named, dosed 104 weeks, study length 104 weeks) was “negative (inactive)”. For the same molecule, the TD50 (rat, strain F344/DuCrj, males, in feed, site: preputial gland, lesion: adenoma, dosed 104 weeks, study length 104 weeks) was 571 mg/kg/day and the carcinogen call (rat, strain F344/DuCrj, males, in feed, site: urinary bladder, lesion: transitional-cell papilloma, dosed 104 weeks, study length 104 weeks) was “negative (inactive)”.
